Patent publication EP3426036B1, “CROP ENHANCEMENT” (priority 2016, dated 2017)

Key:
glutathione reductase = experiment: Enzymatic analysis of soybean plants under drought conditions (Example 2a); assay type: in vivo; details: 0.75 l/ha at R1 or R3
Procedure: (§1) Soybean plants were grown in pots. The plants were treated at R1 (36 days after sewing) or R3 (44 days after sewing) with the compound of formula I at 0.75 l/ha. An untreated control plant was also included. After treatment, the plants were subjected to drought conditions until the end of the trial at day 65. Five replicates of the control and each treatment were harvested for analysis of yield and enzymatic activity.

[1] = tested on: detached wheat (Triticum aestivum var. Arina) leaves; experiment: Detached leaf transpiration and photosynthesis analysis; assay type: in vivo, Triticum aestivum L.
Procedure: Winter wheat (Triticum aestivum L.) of the variety Arina was used for the detached leaf transpiration assay. Plants were grown under optimum conditions in growth chambers until BBCH 12. The seedlings were dark-adapted for one hour; the second leaf was cut under water and directly placed into a 1.5 mL test-tube filled with 1 mL of compound I solution. The solution was prepared by dissolving compound I in dimethyl sulfoxide (DMSO) and diluting in water to the final concentrations of 3, 10, 50 and 100 mg L^-1. After weighing the initial weight of the leaf-tube-system, the leaves were placed in growth chambers at 25°C, 60% relative humidity and a light intensity of 150 µmol m^-2 s^-1 at 14 hours photoperiod. Transpiration was quantified by measuring the weight of the leaf-tube-system after 6 and 24 hours. Tubes without leaves solely filled with water were used to correct for evaporation. At 6 hours, the operating quantum efficiency of photosystem II (φPSII), which is a proxy of the photosynthetic activity, was monitored under growth conditions from the middle of the leaf using a PAM-2500 fluorometer (Walz, Effeltrich, Germany). The experimental design was a randomized complete block design with five replications for each treatment; one experimental unit was one leaf per test-tube. Statistical analysis (ANOVA) was done with Agstat 1.6 / ACSAP 4.29.

Soybean plants [2] = experiment: Crop enhancement effect on soybean under drought conditions, then optimal conditions (Example 2b); assay type: in vivo; details: for Dry weight of pods: 21 days drought then 25 days optimal conditions
Procedure: Soybean plants were grown in pots. The plants were treated at R1 (33 days after sewing) or three days before R3 (40 days after sewing) with the compound of formula I at 0.75 l/ha. An untreated control plant was also included. After treatment, the plants were subjected to drought conditions for 21 days before being allowed to grow under optimal conditions for a further 25 days. Eight replicates of the control and each treatment were harvested for analysis of yield and chlorophyll content. […]

Spring wheat = experiment: Crop enhancement effect on wheat under drought conditions in the field (Example 1d); assay type: in vivo; details: non-irrigated; for Grain Yield / TGW: adjusted to 10% standard moisture; for No. of grains per ear: average of 20 ears per plot
Procedure: Spring wheat (plot size 30m^2) was treated with a single application at BBCH GS 41 (early boot stage) or 49 (first awns visible) with the compound of formula I at a rate of 75.0 g a.i/ha. […] This water supply condition was maintained during the reproductive stages of plant growth (BBCH 55-89). The trial was carried out with six replicates. At the end of the trial, a 20m^2 plot was harvested from each of five replicates. […]

Soybean plants [3] = experiment: Crop enhancement effect on soybean under drought conditions, yield analysis (Example 2a); assay type: in vivo; details: drought until day 65
Procedure: as §1, with “activity. […]” for “activity.”

[4] = 0.75 l/ha @ R1, 3 days after application
[5] = 0.75 l/ha @ R1, 7 days after application
[6] = 0.75 l/ha @ R1, 10 days after application
[7] = 0.75 l/ha @ R1, 14 days after application
[8] = 0.75 l/ha @ R1, 21 days after application
[9] = 0.75 l/ha @ R1, 24 days after application
[10] = 0.75 l/ha @ R1, 28 days after application
[11] = 0.75 l/ha @ R1, 31 days after application
[12] = 0.75 l/ha @ R1, 36 days after application
[13] = 0.75 l/ha @ R1, 41 days after application
[14] = 0.75 l/ha @ R1, 43 days after application
[15] = 0.75 l/ha @ R1, -1 days after application
[16] = 0.75 l/ha @ R3 - 3 days, 0 days after application
[17] = 0.75 l/ha @ R3 - 3 days, 3 days after application
[18] = 0.75 l/ha @ R3 - 3 days, 7 days after application
[19] = 0.75 l/ha @ R3 - 3 days, 14 days after application
[20] = 0.75 l/ha @ R3 - 3 days, 17 days after application
[21] = 0.75 l/ha @ R3 - 3 days, 21 days after application
[22] = 0.75 l/ha @ R3 - 3 days, 24 days after application
[23] = 0.75 l/ha @ R3 - 3 days, 29 days after application
[24] = 0.75 l/ha @ R3 - 3 days, 34 days after application
[25] = 0.75 l/ha @ R3 - 3 days, 36 days after application
[26] = 0.75 l/ha @ R3 - 3 days, -3 days after application
[27] = 0.75 l/ha @ R3 - 3 days, -7 days after application
[28] = 75.0 g a.i/ha applied at BBCH 41
[29] = 75.0 g a.i/ha applied at BBCH 49

## Cn1cc(C(=O)Nc2cccc3c2C2CCC3C2=C(Cl)Cl)c(C(F)F)n1 (centres unmarked) [Compound I, benzovindiflupyr]
Glutathione reductase
  production of the enzyme glutathione reductase compared to the untreated control: increase in the production of the enzyme glutathione reductase
[1]; 3, 10, 50 and 100 mg L^-1, 0 to 24 hours
  leaf transpiration: significantly decreased leaf transpiration in a dose-dependent manner
[1]; 3 and 10 mg L^-1, first 6 hours
  leaf transpiration: decreased only little
[1]; 50 and 100 mg L^-1, within 6 hours of treatment
  leaf transpiration: clearly visible
[1]; at 6 hours, 3 to 100 mg L^-1
  operating quantum efficiency of photosystem II (φPSII): did not show an impact
Soybean plants [2]; [4]
  Average plant colour (increase/decrease (%) compared to negative control treatment): 1.3%
  Digital biomass (increase/decrease (%) compared to negative control treatment): 2.6%
Soybean plants [2]; [5]
  Average plant colour (increase/decrease (%) compared to negative control treatment): 0.4%
  Digital biomass (increase/decrease (%) compared to negative control treatment): 0.4%
Soybean plants [2]; [6]
  Average plant colour (increase/decrease (%) compared to negative control treatment): -0.4%
  Digital biomass (increase/decrease (%) compared to negative control treatment): 1.9%
Soybean plants [2]; [7]
  Average plant colour (increase/decrease (%) compared to negative control treatment): -0.6%
  Digital biomass (increase/decrease (%) compared to negative control treatment): 2.4%
Soybean plants [2]; [8]
  Average plant colour (increase/decrease (%) compared to negative control treatment): -0.3%
  Digital biomass (increase/decrease (%) compared to negative control treatment): -1.5%
Soybean plants [2]; 0.75 l/ha @ R1
  Dry weight of pods: 106.3 % of control
Soybean plants [2]; [9]
  Average plant colour (increase/decrease (%) compared to negative control treatment): -0.3%
  Digital biomass (increase/decrease (%) compared to negative control treatment): -1.1%
Soybean plants [2]; [10]
  Average plant colour (increase/decrease (%) compared to negative control treatment): -1.6%
  Digital biomass (increase/decrease (%) compared to negative control treatment): 1.2%
Soybean plants [2]; [11]
  Average plant colour (increase/decrease (%) compared to negative control treatment): -3.0%
  Digital biomass (increase/decrease (%) compared to negative control treatment): -3.7%
Soybean plants [2]; [12]
  Average plant colour (increase/decrease (%) compared to negative control treatment): -0.5%
  Digital biomass (increase/decrease (%) compared to negative control treatment): -6.3%
Soybean plants [2]; [13]
  Average plant colour (increase/decrease (%) compared to negative control treatment): -1.4%
  Digital biomass (increase/decrease (%) compared to negative control treatment): -9.2%
Soybean plants [2]; [14]
  Average plant colour (increase/decrease (%) compared to negative control treatment): -2.0%
  Digital biomass (increase/decrease (%) compared to negative control treatment): -6.9%
Soybean plants [2]; [15]
  Average plant colour (increase/decrease (%) compared to negative control treatment): 0.3%
  Digital biomass (increase/decrease (%) compared to negative control treatment): 1.5%
Soybean plants [2]; [16]
  Average plant colour (increase/decrease (%) compared to negative control treatment): 0.4%
  Digital biomass (increase/decrease (%) compared to negative control treatment): 3.6%
Soybean plants [2]; [17]
  Average plant colour (increase/decrease (%) compared to negative control treatment): 1.3%
  Digital biomass (increase/decrease (%) compared to negative control treatment): 4.3%
Soybean plants [2]; [18]
  Average plant colour (increase/decrease (%) compared to negative control treatment): 0.4%
  Digital biomass (increase/decrease (%) compared to negative control treatment): 2.7%
Soybean plants [2]; [19]
  Average plant colour (increase/decrease (%) compared to negative control treatment): -0.2%
  Digital biomass (increase/decrease (%) compared to negative control treatment): 1.5%
Soybean plants [2]; [20]
  Average plant colour (increase/decrease (%) compared to negative control treatment): 1.4%
  Digital biomass (increase/decrease (%) compared to negative control treatment): 4.4%
Soybean plants [2]; [21]
  Average plant colour (increase/decrease (%) compared to negative control treatment): 0.2%
  Digital biomass (increase/decrease (%) compared to negative control treatment): 4.4%
Soybean plants [2]; 0.75 l/ha @ R3 - 3 days
  Dry weight of pods: 105.8 % of control
Soybean plants [2]; [22]
  Average plant colour (increase/decrease (%) compared to negative control treatment): 1.3%
  Digital biomass (increase/decrease (%) compared to negative control treatment): -2.4%
Soybean plants [2]; [23]
  Average plant colour (increase/decrease (%) compared to negative control treatment): -0.5%
  Digital biomass (increase/decrease (%) compared to negative control treatment): -0.9%
Soybean plants [2]; [24]
  Average plant colour (increase/decrease (%) compared to negative control treatment): -2.3%
  Digital biomass (increase/decrease (%) compared to negative control treatment): -3.3%
Soybean plants [2]; [25]
  Average plant colour (increase/decrease (%) compared to negative control treatment): -3.9%
  Digital biomass (increase/decrease (%) compared to negative control treatment): 1.6%
Soybean plants [2]; [26]
  Average plant colour (increase/decrease (%) compared to negative control treatment): 0.4%
  Digital biomass (increase/decrease (%) compared to negative control treatment): 2.2%
Soybean plants [2]; [27]
  Average plant colour (increase/decrease (%) compared to negative control treatment): 0.1%
  Digital biomass (increase/decrease (%) compared to negative control treatment): -1.2%
Spring wheat; [28]
  Hectolitre weight: 85.68 kg/Hl
  Grain Yield: 48.00 dT/Ha
  TGW: 41.56 g
  No. of grains per ear: 50.80
Spring wheat; [29]
  Hectolitre weight: 84.96 kg/Hl
  Grain Yield: 42.30 dT/Ha
  TGW: 41.46 g
  No. of grains per ear: 46.70
Soybean plants [3]; 0.75 l/ha @ R1
  Dry weight of pods: 114.8 % of control
Soybean plants [3]; 0.75 l/ha @ R3
  Dry weight of pods: 122.7 % of control
